According to PubChem BioAssay (NCI):
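A five-concentration, 48-hour dose response in 96-well plates underlies each endpoint, interpolated linearly between surrounding concentrations. Definition used: TGI = concentration required for complete inhibition of growth.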

System: A549 NSCLC
Experiment: growth of human tumour cells (NCI), 48 h

SMILES | TGI [µM]
CCOC(=O)C(=CNC(=S)c1ccncc1)C(=O)OCC | > 100
C=CCC(NCc1ccccc1)[C@H](OCc1ccccc1)[C@@H]1COC(C)(C)O1 (some centres undefined) | > 100

System: SNB-19 CNS
Experiment: growth of human tumour cells (NCI), 48 h

SMILES | TGI [µM]
CC(=O)Oc1c(C)cc2c(c1C)C(C)CN2C(C)=O (centres undefined) | > 100
CC1(C)COC(c2ccc(C(=O)c3ccc(Cl)cc3)cc2)=N1 | > 100
CCOC1CCC2C(CCC(/C=C/c3ccc(O)c4ncccc34)N2C)C1 (centres undefined) | > 100
CCOC(=O)C(=CNC(=S)c1ccncc1)C(=O)OCC | > 100
C=CCC(NCc1ccccc1)[C@H](OCc1ccccc1)[C@@H]1COC(C)(C)O1 (some centres undefined) | > 100

System: M14 melanoma
Experiment: growth of human tumour cells (NCI), 48 h

SMILES | TGI [µM]
CC(=O)Oc1c(C)cc2c(c1C)C(C)CN2C(C)=O (centres undefined) | > 100
CC1(C)COC(c2ccc(C(=O)c3ccc(Cl)cc3)cc2)=N1 | > 100
CCOC1CCC2C(CCC(/C=C/c3ccc(O)c4ncccc34)N2C)C1 (centres undefined) | > 100
CCOC(=O)C(=CNC(=S)c1ccncc1)C(=O)OCC | > 100
C=CCC(NCc1ccccc1)[C@H](OCc1ccccc1)[C@@H]1COC(C)(C)O1 (some centres undefined) | > 100

System: SK-OV-3 ovarian
Experiment: growth of human tumour cells (NCI), 48 h

SMILES | TGI [µM]
CC(=O)Oc1c(C)cc2c(c1C)C(C)CN2C(C)=O (centres undefined) | > 100
CC1(C)COC(c2ccc(C(=O)c3ccc(Cl)cc3)cc2)=N1 | > 100
CCOC(=O)C(=CNC(=S)c1ccncc1)C(=O)OCC | > 100
C=CCC(NCc1ccccc1)[C@H](OCc1ccccc1)[C@@H]1COC(C)(C)O1 (some centres undefined) | > 100

System: CCRF-CEM leukemia
Experiment: growth of human tumour cells (NCI), 48 h

SMILES | TGI [µM]
CC(=O)Oc1c(C)cc2c(c1C)C(C)CN2C(C)=O (centres undefined) | > 100
CC1(C)COC(c2ccc(C(=O)c3ccc(Cl)cc3)cc2)=N1 | > 100
CCOC1CCC2C(CCC(/C=C/c3ccc(O)c4ncccc34)N2C)C1 (centres undefined) | > 100
CCOC(=O)C(=CNC(=S)c1ccncc1)C(=O)OCC | > 100
C=CCC(NCc1ccccc1)[C@H](OCc1ccccc1)[C@@H]1COC(C)(C)O1 (some centres undefined) | 69.9

System: DU-145 prostate
Experiment: growth of human tumour cells (NCI), 48 h

SMILES | TGI [µM]
CC(=O)Oc1c(C)cc2c(c1C)C(C)CN2C(C)=O (centres undefined) | > 100
CC1(C)COC(c2ccc(C(=O)c3ccc(Cl)cc3)cc2)=N1 | > 100
CCOC1CCC2C(CCC(/C=C/c3ccc(O)c4ncccc34)N2C)C1 (centres undefined) | > 100
CCOC(=O)C(=CNC(=S)c1ccncc1)C(=O)OCC | > 100
C=CCC(NCc1ccccc1)[C@H](OCc1ccccc1)[C@@H]1COC(C)(C)O1 (some centres undefined) | > 100

System: MCF7 breast
Experiment: growth of human tumour cells (NCI), 48 h

SMILES | TGI [µM]
CC(=O)Oc1c(C)cc2c(c1C)C(C)CN2C(C)=O (centres undefined) | > 100
CC1(C)COC(c2ccc(C(=O)c3ccc(Cl)cc3)cc2)=N1 | > 100
CCOC1CCC2C(CCC(/C=C/c3ccc(O)c4ncccc34)N2C)C1 (centres undefined) | > 100
CCOC(=O)C(=CNC(=S)c1ccncc1)C(=O)OCC | > 100
C=CCC(NCc1ccccc1)[C@H](OCc1ccccc1)[C@@H]1COC(C)(C)O1 (some centres undefined) | > 100

System: MDA-MB-231 breast
Experiment: growth of human tumour cells (NCI), 48 h

SMILES | TGI [µM]
CC(=O)Oc1c(C)cc2c(c1C)C(C)CN2C(C)=O (centres undefined) | > 100
CC1(C)COC(c2ccc(C(=O)c3ccc(Cl)cc3)cc2)=N1 | > 100
CCOC(=O)C(=CNC(=S)c1ccncc1)C(=O)OCC | > 100
C=CCC(NCc1ccccc1)[C@H](OCc1ccccc1)[C@@H]1COC(C)(C)O1 (some centres undefined) | > 100

System: NCI-H460 lung
Experiment: growth of human tumour cells (NCI), 48 h

SMILES | TGI [µM]
CC(=O)Oc1c(C)cc2c(c1C)C(C)CN2C(C)=O (centres undefined) | > 100
CC1(C)COC(c2ccc(C(=O)c3ccc(Cl)cc3)cc2)=N1 | > 100
CCOC1CCC2C(CCC(/C=C/c3ccc(O)c4ncccc34)N2C)C1 (centres undefined) | > 100
CCOC(=O)C(=CNC(=S)c1ccncc1)C(=O)OCC | > 100

System: CAKI-1 renal
Experiment: growth of human tumour cells (NCI), 48 h

SMILES | TGI [µM]
CC1(C)COC(c2ccc(C(=O)c3ccc(Cl)cc3)cc2)=N1 | > 100
CCOC(=O)C(=CNC(=S)c1ccncc1)C(=O)OCC | > 100

System: IGROV1 ovarian
Experiment: growth of human tumour cells (NCI), 48 h

SMILES | TGI [µM]
CC(=O)Oc1c(C)cc2c(c1C)C(C)CN2C(C)=O (centres undefined) | > 100
CC1(C)COC(c2ccc(C(=O)c3ccc(Cl)cc3)cc2)=N1 | > 100
CCOC1CCC2C(CCC(/C=C/c3ccc(O)c4ncccc34)N2C)C1 (centres undefined) | > 100
CCOC(=O)C(=CNC(=S)c1ccncc1)C(=O)OCC | > 100
C=CCC(NCc1ccccc1)[C@H](OCc1ccccc1)[C@@H]1COC(C)(C)O1 (some centres undefined) | > 100

System: A498 renal
Experiment: growth of human tumour cells (NCI), 48 h

SMILES | TGI [µM]
CC(=O)Oc1c(C)cc2c(c1C)C(C)CN2C(C)=O (centres undefined) | > 100
CCOC(=O)C(=CNC(=S)c1ccncc1)C(=O)OCC | > 100
C=CCC(NCc1ccccc1)[C@H](OCc1ccccc1)[C@@H]1COC(C)(C)O1 (some centres undefined) | > 100

System: MDA-MB-435
Experiment: growth of human tumour cells (NCI), 48 h

SMILES | TGI [µM]
CC(=O)Oc1c(C)cc2c(c1C)C(C)CN2C(C)=O (centres undefined) | > 100
CC1(C)COC(c2ccc(C(=O)c3ccc(Cl)cc3)cc2)=N1 | > 100
CCOC(=O)C(=CNC(=S)c1ccncc1)C(=O)OCC | > 100
C=CCC(NCc1ccccc1)[C@H](OCc1ccccc1)[C@@H]1COC(C)(C)O1 (some centres undefined) | > 100

System: TK-10 renal
Experiment: growth of human tumour cells (NCI), 48 h

SMILES | TGI [µM]
CC(=O)Oc1c(C)cc2c(c1C)C(C)CN2C(C)=O (centres undefined) | > 100
CCOC1CCC2C(CCC(/C=C/c3ccc(O)c4ncccc34)N2C)C1 (centres undefined) | > 100
CCOC(=O)C(=CNC(=S)c1ccncc1)C(=O)OCC | > 100
C=CCC(NCc1ccccc1)[C@H](OCc1ccccc1)[C@@H]1COC(C)(C)O1 (some centres undefined) | 70.8

System: OVCAR-3 ovarian
Experiment: growth of human tumour cells (NCI), 48 h

SMILES | TGI [µM]
CC(=O)Oc1c(C)cc2c(c1C)C(C)CN2C(C)=O (centres undefined) | > 100
CC1(C)COC(c2ccc(C(=O)c3ccc(Cl)cc3)cc2)=N1 | > 100
CCOC(=O)C(=CNC(=S)c1ccncc1)C(=O)OCC | > 100
C=CCC(NCc1ccccc1)[C@H](OCc1ccccc1)[C@@H]1COC(C)(C)O1 (some centres undefined) | > 100

System: KM12 colon
Experiment: growth of human tumour cells (NCI), 48 h

SMILES | TGI [µM]
CC(=O)Oc1c(C)cc2c(c1C)C(C)CN2C(C)=O (centres undefined) | > 100
CC1(C)COC(c2ccc(C(=O)c3ccc(Cl)cc3)cc2)=N1 | > 100
CCOC1CCC2C(CCC(/C=C/c3ccc(O)c4ncccc34)N2C)C1 (centres undefined) | 95.2
